US20100144712A1 (priority 2007, published 2010)
Values after ≈ are worked out from the molar mass of the structure shown.

What was measured:
Type in all cases: cell-based
[1] = system: Aspergillus fumigatus (ATCC 16424); assay: In vitro antifungal activity (MIC80), Aspergillus fumigatus ATCC 16424; details: Aspergillus fumigatus, ATCC16424, Table 2, ATCC 16424; read-out: Minimal inhibitory concentration (MIC80)
Protocol: (§1) In vitro antifungal activities of the inventive antifungal compounds were evaluated using test strains including Candida albican (ATCC 90873, 204276, 62342, 64124, 64550, 96901, MYA-573, MYA-574, MYA-575, MYA-576, MYA-1003) and Aspergillus fumigatus (ATCC 16424). Test samples and positive control samples were prepared by dissolving the inventive compounds and comparative compounds, i.e., amphotericin B, fluconazole and itraconazole, in DMSO, respectively, and each successively diluted with medium to obtain test and positive control solutions having test compound concentrations of 0.125 μg/ml to a maximum concentration not generating turbidity. Minimal inhibitory concentration (MIC80) of each compound was determined as the lowest concentration of the test compounds required to reduce growth by 80% relative to a control strain not treated.
(§2) 1) Test strain: Candida albican ATCC 90873, 204276, 62342, 64124, 64550, 96901, MYA-573, MYA-574, MYA-575, MYA-576, MYA-1003, and Aspergillus fumigatus ATCC 16424 were commercially obtained from The American Type Culture Collection (ATCC) and subcultured in CHEMON Co. Ltd. (amphotericin B was commercially purchased from Sigma, and fluconazole and itraconazole were prepared according to methods described in British Patent No. 2,099,818; and U.S. Pat. No. 4,267,179, respectively).
(§3) 2) Medium and culture condition: Candida albican was cultured in Sabourad Dextrose Agar, YM Agar or Potato Dextrose Agar according to ATCC information at a temperature of 37° C., 35° C., 30° C. or 25° C. Aspergillus fumigatus was cultured in Malt Extract Agar or Potato Dextrose Agar at a temperature ranging from 24 to 27° C.
(§4) 3) Preparation of test samples: the inventive compounds and comparative compounds were each diluted with DMSO to obtain 1 to 2 ml of a test sample in a concentration of 100-folds of the determining maximum concentration (256 μg/ml).
(§5) The test samples were each successively diluted with RPMI 1640 to obtain test solutions having concentrations of […] in a 12×75 mm sterilized disposable culture tube. The final concentration of DMSO was adjusted to […] (v/v).
(§6) 5) Preparation of strain solution and inoculation
(§7) Candida albican strains were each subcultured in Sabourad Dextrose Agar, YM Agar or Potato Dextrose Agar medium at 35° C. for 2˜3 days. In the case of yeasts, a single colony was taken from prominent colonies and suspended in 0.85% sterile physiological saline solution and the turbidity of the suspension was adjusted to 80˜82% at 530 nm, and then diluted 50-fold with RPMI 1640 medium to 1.0×10^3˜5.0×10^3 CFU/ml. The turbidity of fungi was adjusted to 80˜82% and the suspension was diluted 50-fold to […]. Aspergillus fumigatus strains were subcultured in Malt Extract Agar for 7˜10 days, and a single colony was taken from prominent colonies and suspended in 0.85% sterile physiological saline solution and the suspension was adjusted to 0.108 at 530 nm, and then diluted 1000-fold with RPMI 1640 medium to 0.4×10^2˜5×10^4 CFU/ml. The turbidity of fungi was adjusted to 80˜82% and the suspension was diluted 50-fold to 0.4102˜0.5104 CFU/ml.
(§8) The strain solutions thus obtained were each seeded into a sterilized 96-well microplate, 0.1 ml of each test solution were added thereto, and […] of alamarblue was treated to each well (Biosource, #DAL1100). This procedure was repeated 2 times.
(§9) Minimal inhibitory concentration (MIC80) of each compound was determined as the lowest concentration of the test compounds required to reduce growth by 80% relative to a control strain not treated.
MIC80 of each of the compounds of which antifungal activities can be confirmed by Table 2 was determined using other test strains, i.e., Aspergillus fumigatus ATCC 16424 and MYA-1163, Aspergillus terreus ATCC 28301, Aspergillus flavus ATCC MYA-1004, and Aspergillus niger ATCC 9142.

[2] = system: Candida albican ATCC 90873; assay: In vitro antifungal activity (MIC80), Candida albican ATCC 90873; details: Candida, ATCC90873; Table 2, ATCC 90873; read-out: Minimal inhibitory concentration (MIC80)
Protocol: as §1, §2, §3, §4, §5, §6, §7, §8, §9

[3] = system: Candida albican ATCC 96901; assay: In vitro antifungal activity (MIC80), Candida albican ATCC 96901; details: Candida, ATCC96901; Table 2, ATCC 96901; read-out: Minimal inhibitory concentration (MIC80)
Protocol: as §1, §2, §3, §4, §5, §6, §7, §8, §9

[4] = system: Candida albican ATCC MYA-1003; assay: In vitro antifungal activity (MIC80), Candida albican ATCC MYA-1003; details: Candida; Table 2, MYA 1003; read-out: Minimal inhibitory concentration (MIC80)
Protocol: as §1, §2, §3, §4, §5, §6, §7, §8, §9

[5] = system: Candida albican ATCC MYA-573; assay: In vitro antifungal activity (MIC80), Candida albican ATCC MYA-573; details: Candida; Table 2, MYA 573; read-out: Minimal inhibitory concentration (MIC80)
Protocol: as §1, §2, §3, §4, §5, §6, §7, §8, §9

[6] = system: Candida albican ATCC 204276; assay: In vitro antifungal activity (MIC80), Candida albican ATCC 204276; details: ATCC204276, Table 2, 204276, read-out: Minimal inhibitory concentration (MIC80)
Protocol: as §1, §2, §3, §4, §5, §6, §7, §8, §9

[7] = system: Candida albican ATCC 64124; assay: In vitro antifungal activity (MIC80), Candida albican ATCC 64124; details: Candida, ATCC64124; Table 2, 64124; read-out: Minimal inhibitory concentration (MIC80)
Protocol: as §1, §2, §3, §4, §5, §6, §7, §8, §9

[8] = system: Candida albican ATCC 64550; assay: In vitro antifungal activity (MIC80), Candida albican ATCC 64550; details: Candida, ATCC64550; Table 2, 64550; read-out: Minimal inhibitory concentration (MIC80)
Protocol: as §1, §2, §3, §4, §5, §6, §7, §8, §9

[9] = system: Candida albican ATCC MYA-574; assay: In vitro antifungal activity (MIC80), Candida albican ATCC MYA-574; details: Candida; Table 2, MYA 574; read-out: Minimal inhibitory concentration (MIC80)
Protocol: as §1, §2, §3, §4, §5, §6, §7, §8, §9

[10] = system: Candida albican ATCC MYA-575; assay: In vitro antifungal activity (MIC80), Candida albican ATCC MYA-575; details: Candida; Table 2, MYA 575; read-out: Minimal inhibitory concentration (MIC80)
Protocol: as §1, §2, §3, §4, §5, §6, §7, §8, §9

[11] = system: Candida albican ATCC MYA-576; assay: In vitro antifungal activity (MIC80), Candida albican ATCC MYA-576; details: Candida; Table 2, MYA 576; read-out: Minimal inhibitory concentration (MIC80)
Protocol: as §1, §2, §3, §4, §5, §6, §7, §8, §9

[12] = system: Candida albican ATCC 62342; assay: In vitro antifungal activity (MIC80), Candida albican ATCC 62342; details: Candida, ATCC62342; Table 2, 62342; read-out: Minimal inhibitory concentration (MIC80)
Protocol: as §1, §2, §3, §4, §5, §6, §7, §8, §9

Structure (SMILES)	MIC80 [1] [mg/L]	MIC80 [2] [mg/L]	MIC80 [3] [mg/L]	MIC80 [4] [mg/L]	MIC80 [5] [mg/L]	MIC80 [6] [mg/L]	MIC80 [7] [mg/L]	MIC80 [8] [mg/L]	MIC80 [9] [mg/L]	MIC80 [10] [mg/L]	MIC80 [11] [mg/L]	MIC80 [12] [mg/L]
C[C@@H](N1CCN(Cc2ccccn2)CC1)[C@](O)(Cn1cncn1)c1ccc(F)cc1F [Example 41, (2R,3R)-2-(2,4-difluorophenyl)-3-(4-((pyridin-2-yl)methyl)piperazin-1-yl)-1-(1H-1,2,4-triazol-1-yl)butan-2-ol]	1 (≈ 2.33 µM)	0.125 (≈ 0.292 µM)	32 (≈ 74.7 µM)	> 128	2 (≈ 4.67 µM)	0.125 (≈ 0.292 µM)	64 (≈ 149 µM)	16 (≈ 37.3 µM)	64 (≈ 149 µM)	64 (≈ 149 µM)	0.125 (≈ 0.292 µM)	
C[C@@H](N1CCN(C(=O)c2nc(-c3ccccc3)no2)CC1)[C@](O)(Cn1cncn1)c1ccc(F)cc1F [Example 45, (4-((2R,3R)-3-(2,4-difluorophenyl)-3-hydroxy-4-(1H-1,2,4-triazol-1-yl)butan-2-yl)piperazin-1-yl)(3-phenyl-1,2,4-oxadiazol-5-yl)methanone]	0.125 (≈ 0.245 µM)	0.125 (≈ 0.245 µM)	> 128	> 128	1 (≈ 1.96 µM)							
Cc1ccc(-c2noc(C(=O)N3CCN([C@H](C)[C@](O)(Cn4cncn4)c4ccc(F)cc4F)CC3)n2)cc1 [Example 47, (4-((2R,3R)-3-(2,4-difluorophenyl)-3-hydroxy-4-(1H-1,2,4-triazol-1-yl)butan-2-yl)piperazin-1-yl)(3-p-tolyl-1,2,4-oxadiazol-5-yl)methanone]	0.25 (≈ 0.478 µM)	0.125 (≈ 0.239 µM)	> 128	> 128	0.25 (≈ 0.478 µM)							
C[C@@H](N1CCN(C(=O)c2nc(-c3ccc(Br)cc3)no2)CC1)[C@](O)(Cn1cncn1)c1ccc(F)cc1F [Example 46, (3-(4-bromophenyl)-1,2,4-oxadiazol-5-yl)(4-((2R,3R)-3-(2,4-difluorophenyl)-3-hydroxy-4-(1H-1,2,4-triazol-1-yl)butan-2-yl)piperazin-1-yl)methanone]	0.126 (≈ 0.214 µM)	0.125 (≈ 0.212 µM)	> 128	> 128	> 128							
C[C@@H](N1CCN(c2cccc(N(C)CCCN3CCOCC3)n2)CC1)[C@](O)(Cn1cncn1)c1ccc(F)cc1F [Example 27, (2R,3R)-2-(2,4-difluorophenyl)-3-(4-(6-(methyl(3-morpholinopropyl)amino)pyridin-2-yl)piperazin-1-yl)-1-(1H-1,2,4-triazol-1-yl)butan-2-ol]		0.25 (≈ 0.438 µM)	16 (≈ 28 µM)	64 (≈ 112 µM)	4 (≈ 7.01 µM)		32 (≈ 56.1 µM)	4 (≈ 7.01 µM)	8 (≈ 14 µM)	1 (≈ 1.75 µM)	0.5 (≈ 0.876 µM)	2 (≈ 3.5 µM)

Further lines, results first:

MIC80 [1] [mg/L]	MIC80 [2] [mg/L]	MIC80 [3] [mg/L]	MIC80 [4] [mg/L]	MIC80 [5] [mg/L]	MIC80 [6] [mg/L]	MIC80 [7] [mg/L]	MIC80 [8] [mg/L]	MIC80 [9] [mg/L]	MIC80 [10] [mg/L]	MIC80 [11] [mg/L]	MIC80 [12] [mg/L]	Structure (SMILES)
0.5 (≈ 0.927 µM)	0.125 (≈ 0.232 µM)	> 128	> 128	1 (≈ 1.85 µM)								COc1ccc(-c2noc(C(=O)N3CCN([C@H](C)[C@](O)(Cn4cncn4)c4ccc(F)cc4F)CC3)n2)cc1 [Example 49, (4-((2R,3R)-3-(2,4-difluorophenyl)-3-hydroxy-4-(1H-1,2,4-triazol-1-yl)butan-2-yl)piperazin-1-yl)(3-(4-methoxyphenyl)-1,2,4-oxadiazol-5-yl)methanone]
0.5 (≈ 0.951 µM)	0.125 (≈ 0.238 µM)	> 128	> 128	> 128								C[C@@H](N1CCN(C(=O)c2nc(-c3ccccc3)ns2)CC1)[C@](O)(Cn1cncn1)c1ccc(F)cc1F [Example 50, (4-((2R,3R)-3-(2,4-difluorophenyl)-3-hydroxy-4-(1H-1,2,4-triazol-1-yl)butan-2-yl)piperazin-1-yl)(3-phenyl-1,2,4-thiadiazol-5-yl)methanone]
0.5 (≈ 0.9 µM)	0.125 (≈ 0.225 µM)	> 128	> 128	4 (≈ 7.2 µM)								COc1ccc(-c2nsc(C(=O)N3CCN([C@H](C)[C@](O)(Cn4cncn4)c4ccc(F)cc4F)CC3)n2)cc1 [Example 54, (4-((2R,3R)-3-(2,4-difluorophenyl)-3-hydroxy-4-(1H-1,2,4-triazol-1-yl)butan-2-yl)piperazin-1-yl)(3-(4-methoxyphenyl)-1,2,4-thiadiazol-5-yl)methanone]
1 (≈ 1.79 µM)	0.25 (≈ 0.446 µM)	> 128	> 128	4 (≈ 7.14 µM)								C[C@@H](N1CCN(C(=O)c2nc(-c3ccc(Cl)cc3)ns2)CC1)[C@](O)(Cn1cncn1)c1ccc(F)cc1F [Example 51, (3-(4-chlorophenyl)-1,2,4-thiadiazol-5-yl)(4-((2R,3R)-3-(2,4-difluorophenyl)-3-hydroxy-4-(1H-1,2,4-triazol-1-yl)butan-2-yl)piperazin-1-yl)methanone]
0.126 (≈ 0.232 µM)	0.126 (≈ 0.232 µM)	> 128	> 128	0.25 (≈ 0.46 µM)								CC(N1CCN(C(=O)c2nc(-c3ccc(Cl)cc3)no2)CC1)C(O)(Cn1cncn1)c1ccc(F)cc1F [Example 48, (3-(4-chlorophenyl-1,2,4-oxadiazol-5-yl)(4-((2R,3R)-3-(2,4-difluorophenyl)-3-hydroxy-4-(1H-1,2,4-triazol-1-yl)butan-2-yl)piperazin-1-yl)methanone]
1 (≈ 1.85 µM)	0.25 (≈ 0.463 µM)	> 128	> 128	> 128								Cc1ccc(-c2nsc(C(=O)N3CCN([C@H](C)[C@](O)(Cn4cncn4)c4ccc(F)cc4F)CC3)n2)cc1 [Example 53, (4-((2R,3R)-3-(2,4-difluorophenyl)-3-hydroxy-4-(1H-1,2,4-triazol-1-yl)butan-2-yl)piperazin-1-yl)(3-p-tolyl-1,2,4-thiadiazol-5-yl)methanone]
